Reference: patent US9598359B2, “Sulfonates from natural oil metathesis” (priority 2010, dated 2017)
Like-named read-outs stand apart in the source and are kept apart here.

How the values were obtained:
[1] = type: physicochemical; set-up: key to Spont. (spontaneity or bloom): E (excellent); G (good); F (fair); P (poor); settings: for % Separation, 1 h / % Separation, 24 h: C = cream; for % Separation, 24 h, oil: O = oil separated, Tr = trace of oil

| SMILES | Spont. (spontaneity or bloom) ([1]; 34 ppm water) | % Separation, 1 h ([1]; 34 ppm water) | % Separation, 24 h ([1]; 34 ppm water) | % Separation, 24 h, oil ([1]; 34 ppm water) | Spont. (spontaneity or bloom) ([1]; 1000 ppm water) | % Separation, 1 h ([1]; 1000 ppm water) | % Separation, 24 h ([1]; 1000 ppm water) | % Separation, 24 h, oil ([1]; 1000 ppm water) | Emulsion stability, mL separation, 1 h (Adjuvant (anionic/nonionic) test sample) | Emulsion stability, mL separation, 24 h (Adjuvant (anionic/nonionic) test sample, Tr = trace) | Emulsion stability, mL separation, 1 h (Anionic test sample) | Emulsion stability, mL separation, 24 h (Anionic test sample) | sol (solubility) (Anionic test sample, 342 ppm water, 30° C.) | Emulsion stability, mL separation, 1 h (Nonionic test sample) | Emulsion stability, mL separation, 24 h (Nonionic test sample) |
| --- | --- | --- | --- | --- | --- | --- | --- | --- | --- | --- | --- | --- | --- | --- | --- |
| CCCCCCCCCCCC(=O)OC(CCCCCCCC(=O)[O-])C(CC)S(=O)(=O)[O-].[Na+].[Na+] (centres unmarked) [C12-35, C12 UFA C12 FA (80:20) SLA] | F | 3.8% | 5 C, % | Tr | F | 3% | 4 C, % | Tr | – | – | – | – | – | – | – |
| CCCCCCCCCC(=O)OC(CCCCCCCC(=O)OC)C(CCCCCCCC(=O)OC)S(=O)(=O)[O-].[Na+] (centres unmarked) [C18-64, DBE C10 FA (75:25) SLA] | F− | 3.2% | 2.5 C, % | 1 O % | F− | 3.7% | 3 C, % | 1 O % | – | – | – | – | – | – | – |
| CCCCCCCCCC(=O)OC(CCCCCCCC(=O)OC)CS(=O)(=O)[O-].[Na+] (centres unmarked) [C10-35, C10 UME C10 FA (60:40) SLA] | F | 3% | 3% | – | F | 3.4% | 4% | – | – | – | – | – | – | – | – |
| CCCCCCCCCC(=O)OC(CCCCCCCC(=O)OC)C(CCCCCCCC(=O)OC)S(=O)(=O)[O-].[Na+] (centres unmarked) [C18-63, DBE C10 FA (60:40) SLA] | F | 3.1% | 3 C, % | 1 O % | F | 3% | 2.5 C, % | 1 O % | – | – | – | – | – | – | – |
| C=CCCCCCCCC(=O)OC(CCCCCCCC(=O)[O-])CS(=O)(=O)[O-].[Na+].[Na+] (centres unmarked) [C10-32, C10 UFA SLA] | F | 3% | 3.9% | – | F | 2.5% | 3% | – | 0 mL | Tr | 0 mL | 0 mL | S | 1 mL | 1 mL |
| CCCCCCCCCCCC(=O)OC(CCCCCCCC(=O)OC)C(CC)S(=O)(=O)[O-].[Na+] (centres unmarked) [C12-37, C12 UME C12 FA (60:40) SLA] | F | 3% | 4 C, % | <1 O % | F | 3% | 3 C, % | 1 O % | – | – | – | – | – | – | – |
| CCCCCCCCCCCCCCCCCC(=O)OC(CCCCCCCC(=O)[O-])C(CC)S(=O)(=O)[O-].[Na+].[Na+] (centres unmarked) [C12-36, C12 UFA C18 FA (80:20) SLA] | F | 3.8% | 4.5 C, % | Tr | F | 3.6% | 4 C, % | Tr | – | – | – | – | – | – | – |
